From ChEMBL document CHEMBL1140505, “D-phenylglycinol-derived non-covalent factor Xa inhibitors: effect of non-peptidic S4 linkage elements on affinity and anticoagulant activity” (2007)

Experiments:
[1] = biological target: Coagulation factor X (Homo sapiens) (UniProt P00742); test: Binding affinity to F10a
Plasma [2] = test: Anticoagulant activity in human plasma assessed as concentration causing 1.5 times prolongation of prothrombin time; type: functional
Plasma [3] = test: Anticoagulant activity in monkey plasma assessed as concentration causing 1.5 times prolongation of prothrombin time; type: functional, Macaca mulatta
Plasma [4] = test: Anticoagulant activity in dog plasma assessed as concentration causing 1.5 times prolongation of prothrombin time; type: functional, Canis lupus familiaris
Plasma [5] = test: Anticoagulant activity in rat plasma assessed as concentration causing 1.5 times prolongation of prothrombin time; type: functional

Chain of Coagulation factor X (Homo sapiens) (P00742 41-179 limits assumed): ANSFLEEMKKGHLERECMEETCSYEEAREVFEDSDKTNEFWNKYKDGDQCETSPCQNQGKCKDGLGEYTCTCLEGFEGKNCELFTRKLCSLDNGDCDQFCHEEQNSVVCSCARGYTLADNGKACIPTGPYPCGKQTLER
Chain of Coagulation factor X (Homo sapiens) (P00742 235-488 limits assumed): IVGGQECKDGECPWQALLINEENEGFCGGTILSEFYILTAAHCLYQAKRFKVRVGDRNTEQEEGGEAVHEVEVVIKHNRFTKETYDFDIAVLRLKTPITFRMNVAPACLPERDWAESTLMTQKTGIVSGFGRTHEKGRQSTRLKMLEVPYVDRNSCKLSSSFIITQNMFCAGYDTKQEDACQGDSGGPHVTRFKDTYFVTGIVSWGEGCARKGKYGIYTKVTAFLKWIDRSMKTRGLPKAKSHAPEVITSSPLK

Structure (SMILES)	Kapp [1]	further results
CC(C)[C@H](COCC1CCN(C(C)C)CC1)NC(=O)c1ccc2c(Cl)c[nH]c2c1	14 10^6L/mol	–
COc1ccc(C(=O)N[C@@H](COCC2CCN(C(C)C)CC2)c2ccccc2)cc1	3 10^6L/mol	–
CC(C)N1CCC(COC[C@H](NC(=O)c2ccc3cc[nH]c3c2)c2ccccc2)CC1	35 10^6L/mol	–
CC(C)N1CCC(CNC(=O)[C@H](NC(=O)c2ccc3c(Cl)c[nH]c3c2)c2ccccc2)CC1	460 10^6L/mol	Activity (Plasma [2]): 0.5 µM; Activity (Plasma [3]): 0.6 µM; Activity (Plasma [4]): 3.2 µM; Activity (Plasma [5]): 2.6 µM
O=C(NC(COCC1CCN(c2ccncc2)CC1)c1ccccc1Cl)c1ccc2c(Cl)c[nH]c2c1 (stereo not drawn)	1300 10^6L/mol	–
CN1CCC(COCC(NC(=O)c2ccc3c(Cl)c[nH]c3c2)c2ccccc2Cl)CC1 (stereo not drawn)	65 10^6L/mol	–
Cc1c[nH]c2cc(C(=O)N[C@@H](COCC3CCN(C(C)C)CC3)c3ccccc3)ccc12	160 10^6L/mol	–
CCN1CCC(COCC(NC(=O)c2ccc3c(Cl)c[nH]c3c2)c2ccccc2Cl)CC1 (stereo not drawn)	150 10^6L/mol	–
CC(C)N1CCC(COCC(NC(=O)c2ccc3c(Cl)c[nH]c3c2)c2ccccc2F)CC1 (stereo not drawn)	650 10^6L/mol	–
CC(C)N1CCC(COC[C@H](NC(=O)c2ccc3c(Cl)c[nH]c3c2)c2ccccc2)CC1	1700 10^6L/mol	Activity (Plasma [2]): 0.4 µM; Activity (Plasma [3]): 0.4 µM; Activity (Plasma [4]): 0.8 µM; Activity (Plasma [5]): 0.6 µM
CC(C)N1CCC(CN(C)C[C@H](NC(=O)c2ccc3c(Cl)c[nH]c3c2)c2ccccc2)CC1	60 10^6L/mol	–
CC(C)N1CCC(CNC[C@H](NC(=O)c2ccc3c(Cl)c[nH]c3c2)c2ccccc2)CC1	1200 10^6L/mol	–
CCCC[C@H](COCC1CCN(C(C)C)CC1)NC(=O)c1ccc2c(Cl)c[nH]c2c1	41 10^6L/mol	–
CC(C)N1CCC(COCC(NC(=O)c2ccc3c(Cl)c[nH]c3c2)c2ccccc2Cl)CC1 (stereo not drawn)	850 10^6L/mol	–
CC(C)N1CCC(CCCC(NC(=O)c2ccc3c(Cl)c[nH]c3c2)c2ccccc2)CC1 (stereo not drawn)	700 10^6L/mol	–
